Results from US20090118471A1, “NOVEL COUMARIN DERIVATIVES” (The University of Tokyo, priority 2006, published 2009).
Structures can show the parent of a compound that is named as a salt.

Key:
[1] = Fluorescence intensity after reaction with N-acetylcysteine; assay type: physicochemical; conditions: 5 μmol/L; after reaction with one molecule of cysteine (NAC); sodium phosphate buffer pH 7.4, 0.5% DMSO
Procedure: (§1) Compound 8 at a concentration of 5 μmol/L was added with N-acetylcysteine (NAC), Ac-AECACRA-OH peptide, or Ac-AECAACRA-OH peptide (C-terminus is carboxyl group, N-terminus is acetyl group (Ac), and amino acids are represented by the single letter codes), and fluorescence intensity was measured. For the reaction mixture, a 100 mmol/L sodium phosphate buffer (pH=7.4, containing 0.5% dimethyl sulfoxide as a cosolvent) was used.

[2] = Fluorescence intensity after reaction with peptides containing two neighboring cysteine residues; assay type: physicochemical; conditions: 5 μmol/L; after reaction with peptides containing two neighboring cysteine residues in the same molecule; sodium phosphate buffer pH 7.4, 0.5% DMSO
Procedure: as §1

[3] = in 0.1 mol/L sulfuric acid solution; value taken as standard; cited from earlier work

Structure (SMILES) | Fluorescence [1] | Fluorescence [2] | Fluorescence quantum yield (reference standard) [3]
O=C(Cc1cc(=O)oc2cc(O)ccc12)NC1CC(N2C(=O)C=CC2=O)CC(N2C(=O)C=CC2=O)C1 (stereo not drawn) [Compound 8] | substantially non-fluorescent | intensely fluorescent adducts | 
C=C[C@H]1C[N@@]2CC[C@H]1C[C@H]2[C@H](O)c1ccnc2ccc(OC)cc12 [quinine sulfate] |  |  | 0.577
